Some test systems named below: 786-0; CAKI-1; CCRF-CEM; EKVX; MCF7; MDA-MB-435; MOLT-4; Malme-3M; NCI-H226; OVCAR-4; SF-268; SF-295; SK-OV-3; SN12C; SNB-19; SNB-75; SR; UACC-257; UO-31.
Holding throughout (test): growth of human tumour cells (NCI), 48 h

The structures appear in SMILES notation.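 Method: 48-hour compound exposure of cells in 96-well plates, five concentrations, linear interpolation of endpoints. GI50 marks 50% less growth.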 Calls of active or inactive are those of the source. No stated cut-off is given here; in the data, active = GI50 up to about 1.1 µM and inactive = higher. Bounds are passed on as bounds.

Regarding `Cc1noc(C)c1-n1nc2ccc3nonc3c2n1`, the GI50 is 37.5 µM (inactive) in the experiment on 786-0; > 83.8 µM (inactive) with CAKI-1; > 100 µM (inactive) in the experiment with CCRF-CEM; 35.9 µM (inactive) in the experiment with EKVX; > 67.8 µM (inactive) with MCF7; > 100 µM (inactive) in the experiment on MDA-MB-435. In addition, the GI50 is > 100 µM (inactive) with MOLT-4; > 100 µM (inactive) in the experiment on Malme-3M; > 81.8 µM (inactive) with NCI-H226; > 100 µM (inactive) with OVCAR-4; 41 µM (inactive) in the experiment on SF-268; 31.7 µM (inactive) with SF-295. The GI50 in the experiment with SK-OV-3 is 34.8 µM (inactive); in the experiment on SN12C, > 100 µM (inactive); in the experiment with SNB-19, 32.3 µM (inactive); in the experiment on SNB-75 it was 33.1 µM (inactive); with SR, > 100 µM (inactive); with UACC-257, > 100 µM (inactive). Further, the GI50 with UO-31 was 47.2 µM (inactive).
As for `Cc1c(S(=O)(=O)c2ccccc2)c(N)n(Cc2ccccc2)c1C`, the GI50 in the experiment with 786-0, with CAKI-1, in the experiment on CCRF-CEM, with EKVX, in the experiment with MCF7 and with MDA-MB-435 was > 100 µM (inactive) throughout. For the same compound, the GI50 in the experiment on MOLT-4 is > 100 µM (inactive); with Malme-3M, > 100 µM (inactive); with NCI-H226 it was > 100 µM (inactive); with OVCAR-4, 85.7 µM (inactive); in the experiment with SF-268, 80.5 µM (inactive); in the experiment on SF-295 it was > 100 µM (inactive). Further, the GI50 in the experiment with SK-OV-3, with SN12C, with SNB-19, in the experiment with SNB-75, with SR and with UACC-257 was > 100 µM (inactive) each time. The GI50 in the experiment with UO-31 was > 100 µM (inactive).
For `CCOC(=O)C12OC(CCC1=O)C(C(=O)OC)=C2C(=O)OC` (stereo not given), the GI50 in the experiment with 786-0, with CAKI-1, in the experiment on CCRF-CEM, in the experiment with EKVX, with MCF7 and in the experiment with MDA-MB-435 was > 10 µM (inactive) in each case. The GI50 in the experiment with MOLT-4, with Malme-3M, in the experiment on NCI-H226, in the experiment on OVCAR-4, with SF-268 and in the experiment on SF-295 was > 10 µM (inactive) in each case. Moreover, the GI50 was > 10 µM (inactive) with SK-OV-3; > 10 µM (inactive) in the experiment on SN12C; > 10 µM (inactive) with SNB-19; 2.26 µM (inactive) with SNB-75; > 10 µM (inactive) with SR; > 10 µM (inactive) in the experiment with UACC-257. The GI50 with UO-31 was > 10 µM (inactive).
For the compound `C[C@@]1(CCCCCCCCCCc2ccccc2)C[C@@]2(C)OC(=O)C[C@H]2OO1`, the GI50 in the experiment on 786-0 was 1.51 µM (inactive); in the experiment on CAKI-1 it was 30.3 µM (inactive); in the experiment on CCRF-CEM it was 1.55 µM (inactive); in the experiment with EKVX, 2.52 µM (inactive); in the experiment on MCF7 it was 1.56 µM (inactive); with MDA-MB-435, 1.81 µM (inactive). Further, the GI50 in the experiment on MOLT-4 was 1.69 µM (inactive); with Malme-3M, 1.54 µM (inactive); in the experiment on NCI-H226, 3.1 µM (inactive); with OVCAR-4 it was 2.17 µM (inactive); in the experiment on SF-268, 1.8 µM (inactive); with SF-295, 1.82 µM (inactive). In addition, the GI50 was 2.48 µM (inactive) in the experiment with SK-OV-3; 1.81 µM (inactive) in the experiment with SN12C; 2.26 µM (inactive) in the experiment with SNB-19; 2.81 µM (inactive) with SNB-75; 1.88 µM (inactive) in the experiment on SR; 2.12 µM (inactive) with UACC-257. The GI50 with UO-31 was 1.89 µM (inactive).
For the compound `O=C(c1ccccc1)n1c2ccc(Br)cc2c2nc3ccccc3nc21`, the GI50 was 37.8 µM (inactive) in the experiment with 786-0; > 100 µM (inactive) with CAKI-1; 58.9 µM (inactive) with CCRF-CEM; > 100 µM (inactive) in the experiment on EKVX; 43.8 µM (inactive) with MCF7; > 100 µM (inactive) in the experiment on MDA-MB-435. The GI50 with MOLT-4 is 46.9 µM (inactive); with Malme-3M, > 100 µM (inactive); in the experiment on NCI-H226, > 100 µM (inactive); in the experiment on OVCAR-4 it was 48.6 µM (inactive); in the experiment on SF-268, > 100 µM (inactive); in the experiment on SF-295, > 100 µM (inactive). Also, the GI50 in the experiment on SN12C is > 100 µM (inactive); in the experiment with SNB-19 it was > 100 µM (inactive); in the experiment on SNB-75, 46.2 µM (inactive); with SR it was > 100 µM (inactive); in the experiment with UACC-257 it was > 100 µM (inactive); with UO-31, 45.8 µM (inactive).
As for `COc1c(Br)cc2c(c1OC)C(Br)CCC(Br)(Br)C2=O` (stereo not given), the GI50 in the experiment on 786-0 was 0.385 µM (active); in the experiment with CAKI-1, 2.77 µM (inactive); in the experiment on EKVX it was 3.93 µM (inactive); in the experiment with MCF7 it was 0.74 µM (active); in the experiment on MDA-MB-435, 0.434 µM (active); in the experiment with MOLT-4 it was < 0.0183 µM (active). Moreover, the GI50 in the experiment with Malme-3M is 1.89 µM (inactive); with NCI-H226, 2.21 µM (inactive); in the experiment on OVCAR-4, 1.65 µM (inactive); in the experiment with SF-268, 0.986 µM (active); in the experiment with SF-295, 2.52 µM (inactive); in the experiment on SK-OV-3, 2.9 µM (inactive). The GI50 with SN12C is 0.382 µM (active); in the experiment on SNB-19 it was 4.36 µM (inactive); in the experiment on SNB-75, 9.02 µM (inactive); in the experiment on SR, 0.0368 µM (active); in the experiment on UACC-257, 3.17 µM (inactive); in the experiment on UO-31 it was 1.37 µM (inactive).
`O=C(Nc1ccc(Cl)cc1)c1cc(S(=O)(=O)N2CCNNC2=O)c(S)cc1Cl`: the GI50 is > 100 µM (inactive) in the experiment with 786-0; > 100 µM (inactive) in the experiment on CAKI-1; 97.7 µM (inactive) in the experiment with CCRF-CEM; > 100 µM (inactive) in the experiment on EKVX; > 100 µM (inactive) with MCF7; > 100 µM (inactive) in the experiment on MDA-MB-435. For the same compound, the GI50 in the experiment with MOLT-4, in the experiment with Malme-3M, in the experiment on NCI-H226, in the experiment on OVCAR-4, with SF-268 and in the experiment on SF-295 was > 100 µM (inactive) throughout. Moreover, the GI50 in the experiment on SN12C, in the experiment on SNB-19, in the experiment with SNB-75, in the experiment with SR, in the experiment on UACC-257 and with UO-31 was > 100 µM (inactive) each time.
Take `O=C(O)C12C3CCC(CC3)C1(C(=O)O)C1CCC2C1` (stereo not given): the GI50 in the experiment on 786-0, in the experiment on CAKI-1, in the experiment on CCRF-CEM, in the experiment with MCF7, in the experiment on MDA-MB-435 and with MOLT-4 was > 100 µM (inactive) each time. The GI50 in the experiment with Malme-3M, with NCI-H226, with SF-268, in the experiment with SF-295, in the experiment on SK-OV-3 and in the experiment on SN12C was > 100 µM (inactive) in each case. Moreover, the GI50 in the experiment on SNB-19 is > 100 µM (inactive); with SNB-75 it was > 100 µM (inactive); in the experiment on SR, < 0.01 µM (active); in the experiment with UACC-257, > 100 µM (inactive); with UO-31 it was > 100 µM (inactive).
In the case of `C[n+]1c(-c2ccc(/C=N\NC(=O)c3ccc(C(=O)N/N=C/c4ccc(-c5cn6ccsc6[n+]5C)cc4)cc3)cc2)cn2ccsc21`, the GI50 in the experiment on 786-0 was 16.6 µM (inactive); with CAKI-1 it was 18.7 µM (inactive); in the experiment on CCRF-CEM, 25.4 µM (inactive); in the experiment with EKVX it was 15.8 µM (inactive); in the experiment on MCF7 it was 20.2 µM (inactive); in the experiment with MDA-MB-435 it was 15.8 µM (inactive). Moreover, the GI50 in the experiment on MOLT-4 was 15.2 µM (inactive); in the experiment on Malme-3M it was 21 µM (inactive); in the experiment with NCI-H226, 16.9 µM (inactive); in the experiment with OVCAR-4, 28.8 µM (inactive); in the experiment on SK-OV-3, 46.5 µM (inactive); in the experiment with SN12C, 19.4 µM (inactive). Moreover, the GI50 was 24.6 µM (inactive) in the experiment on SNB-19; 23.3 µM (inactive) with SNB-75; 17.3 µM (inactive) in the experiment with SR; 21.7 µM (inactive) in the experiment with UACC-257; 15.2 µM (inactive) with UO-31.
On to `O=C(n1[nH]c(=O)n(-c2ccc([N+](=O)[O-])cc2)c1=O)C(Cl)(Cl)Cl`, for which the GI50 with 786-0, in the experiment on CAKI-1, with EKVX, with MCF7, in the experiment with MDA-MB-435 and in the experiment with MOLT-4 was > 75 µM (inactive) throughout. The GI50 in the experiment on Malme-3M, with NCI-H226, in the experiment with OVCAR-4, in the experiment on SF-268, in the experiment with SF-295 and in the experiment on SK-OV-3 was > 75 µM (inactive) throughout. Moreover, the GI50 with SN12C, in the experiment with SNB-19, with SNB-75, in the experiment with SR, in the experiment on UACC-257 and with UO-31 was > 75 µM (inactive) each time.
For `CCOC(=O)C(CS)NC(=O)CCCCCCCC(=O)NC(CS)C(=O)OCC` (stereo not given), the GI50 is > 100 µM (inactive) in the experiment on 786-0; > 100 µM (inactive) with CAKI-1; 21.2 µM (inactive) with CCRF-CEM; > 100 µM (inactive) with EKVX; > 100 µM (inactive) in the experiment on MCF7; > 100 µM (inactive) with MDA-MB-435. Also, the GI50 was 32.4 µM (inactive) in the experiment with MOLT-4; 92 µM (inactive) with Malme-3M; > 100 µM (inactive) with NCI-H226; > 100 µM (inactive) in the experiment on OVCAR-4; > 100 µM (inactive) in the experiment on SF-295; > 100 µM (inactive) with SK-OV-3. For the same compound, the GI50 was > 100 µM (inactive) with SN12C; 37.4 µM (inactive) with SNB-19; > 100 µM (inactive) with SNB-75; 36.3 µM (inactive) in the experiment with SR; 34.4 µM (inactive) with UACC-257; > 100 µM (inactive) with UO-31.

The record behind these values is ChEMBL document CHEMBL1201862, “PubChem BioAssay data set” (2004).
